Measurements published in patent US12304912B2, “Fused bicyclic RAF inhibitors and methods for use thereof” (Jazz Pharmaceuticals Ireland Limited, priority 2020, dated 2025).

Columns and labels:
[1] = Microsomal stability assay, mouse liver microsomes (MLM); assay type: in vitro ADME; conditions: 0.5 mg/mL protein, 1 μM substrate
Description: (§1) Microsomal Stability Assay
(§2) The stability studies were performed manually using the substrate depletion approach. Test compounds were incubated at 37° C. with cryo-preserved mouse or human liver microsomes (Corning) at a protein concentration of 0.5 mg·mL^−1 and a final substrate concentration of 1 μM. Aliquots were removed from the incubation at defined timepoints and the reaction was terminated by adding to ice-cold organic solvent. Compound concentrations were determined by LC-MS/MS analysis. The natural log of the percentage of compound remaining was plotted against each time point and the slope determined. The half-life (t1/2) and CLint were calculated using Equations 1 and 2, respectively.
(§3) HLM (human liver microsomes) and MLM (mouse liver microsomes) stability assay results are described in Tables 1-2.

[2] = system: RAF dimers in HCT-116 cells; test: HCT-116 AlphaLISA SureFire pERK1/2 cellular assay (dimer); assay type: cell-based; conditions: Homo sapiens, HCT-116; HCT116 cells pre-dosed with 1 μM Encorafenib, 1 hr; read-out: pERK HCT116 dimer (1 hr) pIC50 (converted)
Description: (§4) The human HCT-116 colorectal carcinoma cell line (ATCC CCL-247) endogenously expresses the KRAS^G13D mutation, which leads to constitutive activation of the MAP kinase pathway and phosphorylation of ERK. […] Assay read outs took place 2 or 24 hours after dosing with compounds. On the first day, HCT-116 cells were harvested, resuspended in growth medium (McCoys5A with Glutamax (Life Technologies 36600021) and 10% heat-inactivated fetal bovine serum (Sigma F9665)), and counted. Cells were plated in 100 μl per well in each well of a 96-well culture dish (Sigma CLS3598) to a final density of 30,000 (2 hr read) or 15,000 (24 hr read) cells per well and incubated over night at 37° C. and 5% CO2. On day 2, the growth medium was exchanged for dosing medium (McCoys5A with Glutamax (Life Technologies 36600021) and 1% heat-inactivated fetal bovine serum (Sigma F9665)) and the cells were dosed with compounds to produce a 10-point dose response, where the top concentration was 1 μM and subsequent concentrations were at 1/3 log dilution intervals. A matched DMSO control was included. The cells were subsequently incubated for either 2 or 24 hours at 37° C. and 5% CO2. After incubation, media was removed and the cells were incubated with lysis buffer containing phosphatase inhibitors for 15 minutes at room temperature. Cell lysates were transferred to a 12 area 96 well white Optiplate™ (Perkin Elmer 6005569) and incubated with anti-mouse IgG acceptor beads, a biotinylated anti-ERK1/2 rabbit antibody recognizing both phosphorylated and non-phosphorylated ERK1/2, a mouse antibody targeted to the Thr202/Tyr204 epitope and recognizing phosphorylated ERK proteins only, and streptavidin-coated donor beads. The biotinylated antibody binds to the streptavidin-coated donor beads and the phopsho-ERK1/2 antibody binds to the acceptor beads. Plates were read on an EnVision reader (Perkin Elmer) and excitation of the beads at 680 nm with a laser induced the release of singlet oxygen molecules from the donor beads that trigger energy transfer to the acceptor beads in close proximity, producing a signal that can be measured at […]. Both antibodies bound to phosphorylated ERK proteins, bringing the donor and acceptor beads into close proximity. All data were analyzed using the Dotmatics or GraphPad Prism software packages. Inhibition of ERK phosphorylation was assessed by determination of the absolute IC50 value, which is defined as the concentration of compound required to decrease the level of phosphorylated ERK proteins by 50% when compared to DMSO control.
HCT-116 AlphaLISA SureFire pERK1/2 Cellular Assay (Dimer)
The human HCT-116 colorectal carcinoma cell line (ATCC CCL-247) endogenously expresses the KRAS^G13D mutation, which leads to constitutive activation of the MAP kinase pathway and phosphorylation of ERK. First generation RAF inhibitors can promote RAF dimer formation in KRAS mutant tumours leading to a paradoxical activation of the pathway. To determine whether compounds can circumvent this problem and inhibit RAF dimers in HCT-116 cells, they were tested using AlphaLISA® SureFire® technology (Perkin Elmer p-ERK1/2 p-T202/Y204 assay kit ALSU-PERK-A10K). The main procedure is essentially the same as described above, with the following adjustments: Cells were seeded with the seeding density of 30,000 cells per well. On the second day (the day of dosing) no medium change was performed and the cells were dosed with 1 μM of Encorafenib for 1 hour (at 37° C. and 5% CO2) to induce RAF dimers and promote paradoxical dimer-dependent pERK signalling. After incubation, the cells were washed, 100 μl fresh growth medium was added, and cells were dosed with compounds of interest to produce a 10-point dose response, where the top concentration was 10 μM and subsequent concentrations are at 1/2 log dilution intervals. Cells were incubated for another hour at 37° C. and 5% CO2 before lysis and processing with the pERK AlphaLISA® SureFire® kit as described above. […]

[3] = Microsomal stability assay, human liver microsomes (HLM); assay type: in vitro ADME; conditions: 0.5 mg/mL protein, 1 μM substrate
Description: as §1, §2, §3

[4] = Solubility (Sol), medium not stated; assay type: physicochemical; conditions: cells not marked (FESSIF)
[5] = system: BRAF monomers in A375 cells; test: A375 AlphaLISA SureFire pERK1/2 cellular assay (monomer); assay type: cell-based; conditions: Homo sapiens, A-375; A375 cells, 1 hr; read-out: pERK A375 (1 hr) pIC50 (converted)
Description: as §4
A375 AlphaLISA SureFire pERK1/2 Cellular Assay (Monomer)
The human A375 melanoma cell line (ATCC CRL-1619) endogenously expresses the BRAF^V600E mutation, which leads to constitutive activation of the MAP kinase pathway and phosphorylation of ERK. In BRAF^V600E mutant tumours, BRAF signals as a monomer to activate ERK. To determine whether compounds can inhibit BRAF monomers in A375 cells, they were tested using AlphaLISA® SureFire® technology (Perkin Elmer p-ERK1/2 p-T202/Y204 assay kit ALSU-PERK-A10K). The main procedure is essentially the same as described above for HCT-116 cells, with the following adjustments: The A375 cells were cultivated and dosed in Dulbecco's modified Eagle's medium containing 4.5 g/L D-glucose (Sigma D6546), 10% heat-inactivated fetal bovine serum (Sigma F9665), and 1% Sodium-Pyruvate (Sigma S8636), and seeded with a seeding density of 30,000 cells per well. No media exchange was performed before dosing with compounds to produce a 10-point dose response, where the top concentration was 10 μM and subsequent concentrations were at 1/2 log dilution intervals. Subsequently, the cells were incubated for 1 hour at 37° C. and 5% CO2 before lysis.

[6] = Plasma protein binding assay, human plasma (hPPB); assay type: in vitro ADME; conditions: 5 μM, equilibrium dialysis 4 hours 37° C.
Description: (§5) Plasma Protein Binding Assay The plasma protein binding was determined by the equilibrium dialysis method. A known concentration of compound (5 μM) in previously frozen human or mouse plasma (Sera Labs) was dialysed against phosphate buffer using a RED device (Life Technologies) for 4 hours at 37° C. The concentration of compound in the protein containing (PC) and protein free (PF) sides of the dialysis membrane were determined by LC-MS/MS and the % free compound was determined by equation 4. Data analysis was performed using Excel (Microsoft, USA). % free=(1−((PC−PF)/PC))×100 (4) hPPB (human plasma protein binding) and mPPB (mouse plasma protein binding) results are described in Tables 1-2.

[7] = Plasma protein binding assay, mouse plasma (mPPB); assay type: in vitro ADME; conditions: 5 μM, equilibrium dialysis 4 hours 37° C.
Description: as §5

SMILES	microsomal CLint at 1 μM [1] [µL/min/mg]	IC50 [2] [nM]	microsomal CLint at 1 μM [3] [µL/min/mg]	Sol [4] [mg/L]	IC50 [5] [nM]	hPPB (% free) [6] [% free]	mPPB (% free) [7] [% free]
COc1ccccc1-c1c[nH]c(C2COc3ccc(Oc4ccnc5c4CCC(=O)N5)cc3C2)n1 (stereo not shown) [Compound 1, 5-[3-[4-(2-methoxyphenyl)-1H-imidazol-2-yl]chroman-6-yl]oxy-3,4-dihydro-1H-1,8-naphthyridin-2-one]	109	67.6	123	<1.2	28.2	0.2	0.5
Cc1ccccc1-c1c[nH]c(C2COc3ccc(Oc4ccnc5c4CCC(=O)N5)cc3C2)n1 (stereo not shown) [Compound 2, 5-[3-[4-(o-tolyl)-1H-imidazol-2-yl]chroman-6-yl]oxy-3,4-dihydro-1H-1,8-naphthyridin-2-one]	85.8	58.9	147	<1.1	12.6	0.3	1
O=C1CCc2c(Oc3ccc4c(c3)CC(c3nc(-c5ccccc5C(F)(F)F)c[nH]3)CO4)ccnc2N1 (stereo not shown) [Compound 4, 5-[3-[4-[2-(trifluoromethyl)phenyl]-1H-imidazol-2-yl]chroman-6-yl]oxy-3,4-dihydro-1H-1,8-naphthyridin-2-one]	121	269	261	<1.3	97.7	<0.1	0.5
N#Cc1cccc(-c2c[nH]c(C3COc4ccc(Oc5ccnc6c5CCC(=O)N6)cc4C3)n2)c1 (stereo not shown) [Compound 16, 3-[2-[6-[(7-oxo-6,8-dihydro-5H-1,8-naphthyridin-4-yl)oxy]chroman-3-yl]-1H-imidazol-4-yl]benzonitrile]	–	617	–	<1.2	575	–	–
O=C1CCc2c(Oc3ccc4c(c3)CC(c3nc5cc(C(F)(F)F)cc(Cl)c5[nH]3)CO4)ccnc2N1 (stereo not shown) [Compound 30]	–	1320	–	<1.3	162	–	–
CN(C)Cc1cc(C(F)(F)F)c2nc(C3COc4ccc(Oc5ccnc6c5CCC(=O)N6)cc4C3)[nH]c2c1 (stereo not shown) [Compound 34]	8.6	–	46.9	28.7	4470	0.7	3.2
O=C1CCc2c(Oc3ccc4c(c3)CC(c3cc(-c5ccccc5C(F)(F)F)n[nH]3)CO4)ccnc2N1 (stereo not shown) [Compound 35, 5-[3-[3-[2-(trifluoromethyl)phenyl]-1H-pyrazol-5-yl]chroman-6-yl]oxy-3,4-dihydro-1H-1,8-naphthyridin-2-one]	42.1	525	277	<1.3	2450	<0.1	–
O=C1CCc2c(Oc3ccc4c(c3)CC(c3cc(-c5ccccc5Cl)n[nH]3)CO4)ccnc2N1 (stereo not shown) [Compound 36]	18.4	174	23.5	<1.2	525	–	<0.1
O=C1CCc2c(Oc3ccc4c(c3)CC(c3cc(-c5cccc(Cl)c5)n[nH]3)CO4)ccnc2N1 (stereo not shown) [Compound 37]	18.4	339	–	<1.2	501	–	–
O=C1CCc2c(Oc3ccc4c(c3)CC(c3cc(-c5ccc(C(F)(F)F)cc5)n[nH]3)CO4)ccnc2N1 (stereo not shown) [Compound 38]	4.3	3980	3	<1.3	8510	–	–
COc1ccccc1-c1cc(C2COc3ccc(Oc4ccnc5c4CCC(=O)N5)cc3C2)[nH]n1 (stereo not shown) [Compound 40]	27.1	324	–	<1.2	251	–	–
COc1cccc(-c2cc(C3COc4ccc(Oc5ccnc6c5CCC(=O)N6)cc4C3)[nH]n2)c1 (stereo not shown) [Compound 41]	46.1	302	–	<1.2	513	–	1.2
O=C1CCc2c(Oc3ccc4c(c3)CC(c3cc(-c5cccc(C(F)(F)F)c5)n[nH]3)CO4)ccnc2N1 (stereo not shown) [Compound 42]	22	741	10.6	<1.3	891	–	<0.1
O=C1CCc2c(Oc3ccc4c(c3)CN(C(=O)Nc3ccccc3)CC4)ccnc2N1 [Compound 46, 7-[(7-oxo-6,8-dihydro-5H-1,8-naphthyridin-4-yl)oxy]-N-phenyl-3,4-dihydro-1H-isoquinoline-2-carboxamide]	45.5	–	18.4	<1	–	1.9	2.3
c1ccc(-c2c[nH]c(C3COc4ccc(OC5CCOCC5)cc4C3)n2)cc1 (stereo not shown) [compound 51]	123	–	156	1.2	–	0.5	2.6
